The source of these data is PMC6689897, “Drugging an undruggable pocket on KRAS” (Proceedings of the National Academy of Sciences of the …, 2019).

What all share (assay): Alpha Screen PPI assay
Type in all cases: biochemical

One test deals with T1, GDP-KRASG12D::SOS1 (Homo sapiens, UniProt P01116, G12D).
T1 construct: KRAS (G12D) 1-169, N-terminal 6His-tag, C-terminal avi-tag was from Xtal; 6His-tag (N); purchased Xtal BioStructures, Inc
The following applies: for IC50: Alpha Screen, duplicate. As for the experimental part: (§1) 221 Measurements of various protein–protein interactions were performed using the Alpha
(§2) 222 Screen technology developed by Perkin Elmer. Recombinant RAS proteins (H-, N-, K-
(§3) 223 RAS variants; all KRAS variants are based on KRAS isoform 4B (uniprot id P01116-2);
(§4) 224 KRAS (G12D) 1-169, N-terminal 6His-tag, C-terminal avi-tag was from Xtal
(§5) 225 BioStructures, Inc., KRAS (G12C) 1-169, C-terminal avi-tag, biotinylated, mutations:
(§6) 226 C51S, C80L, C118S, NRAS(wt) 1-172, C-terminal avi-tag, biotinylated; HRAS(wt) 1-
(§7) 227 166, C-terminal avi-tag, biotinylated). Biotinylation was performed in vitro with
(§8) 228 recombinant BirA biotin-protein ligase as recommended by the manufacturer (Avidity
(§9) 229 LLC, Aurora, Colorado, USA). Interacting proteins such as SOS1 (564-1049, N-terminal
(§10) 230 GST-tag, TEV cleavage site), cRaf (1-303, N-terminal GST-tag, TEV cleavage site) and
(§11) 231 PI3KA- RBD (160-317, N-term-HIS_GST-tag) were expressed as glutathione S
(§12) 232 transferase (GST) fusions. Accordingly, the Alpha Screen beads were glutathione coated
(§13) 233 Alpha Lisa acceptor beads (Perkin Elmer AL 109 R) and Alpha Screen Streptavidin
(§14) 234 conjugated donor beads (Perkin Elmer 6760002L). Nucleotides were purchased from
(§15) 236 interaction assays were carried out in PBS, containing 0.1% bovine serum albumin,
(§16) 237 0,05% Tween-20 and 10 µM of the corresponding nucleotide. Assays were carried out in
(§17) 238 white ProxiPlate-384 Plus plates (Perkin Elmer #6008280) in a final volume of 20 µL. In
(§18) 239 brief, biotinylated RAS proteins (10 nM final concentration) and GST-SOS1, GST-PI3K
(§19) 240 or GST-CRAF (10 nM final) were mixed with glutathione acceptor beads (5 µg/mL final
(§20) 241 concentration) in buffer, containing the corresponding nucleotides (GDP or GTP for
(§21) 242 assays containing SOS1, only GTP for interaction assays containing PI3K or CRAF) and
(§22) 243 were incubated for 30 min at room temperature. After addition of streptavidin donor
(§23) 244 beads (5 µg/mL final concentration) under green light, the mixture was further incubated
(§24) 245 for 60 min in the dark at room temperature. Single oxygen induced fluorescence was
(§25) 246 measured at an Enspire multimode plate reader (Perkin Elmer) according to the
(§26) 247 manufacturer’s recommendations. […]

For a further test, the target named is GTP-KRASG12C::CRAF (Homo sapiens, UniProt P01116, C118S/C51S/C80L/G12C). The following applies: duplicate. Here is the method: as §1, §2, §3, §4, §5, §6, §7, §8, §9, §10, §11, §12, §13, §14, §15, §16, §17, §18, §19, §20, §21, §22, §23, §24, §25, §26
The target of another test is GTP-KRASG12C::PI3Kα (Homo sapiens, UniProt P01116, C118S/C51S/C80L/G12C). The following applies: duplicate, read-out: IC50 GTP-KRASG12C::PI3K. Here is the method:
as §1, §2, §3, §4, §5, §6, §7, §8, §9, §10, §11, §12, §13, §14, §15, §16, §17, §18, §19, §20, §21, §22, §23, §24, §25, §26

The next test has as its target GTP-KRASG12C::SOS1 (Homo sapiens, UniProt P01116, C118S/C51S/C80L/G12C). The following applies: duplicate. Here is the method:
as §1, §2, §3, §4, §5, §6, §7, §8, §9, §10, §11, §12, §13, §14, §15, §16, §17, §18, §19, §20, §21, §22, §23, §24, §25, §26

Some results are limits rather than exact numbers.

T1 sequence (P01116 1-169 isoform P01116-2 G12D): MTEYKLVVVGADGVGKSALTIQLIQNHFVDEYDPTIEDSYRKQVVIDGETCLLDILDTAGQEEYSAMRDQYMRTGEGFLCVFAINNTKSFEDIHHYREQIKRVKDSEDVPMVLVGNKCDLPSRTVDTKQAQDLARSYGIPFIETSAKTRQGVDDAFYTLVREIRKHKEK
Chain of GTP-KRASG12C::CRAF (P01116 1-169 isoform P01116-2 G12C/C51S/C80L/C118S): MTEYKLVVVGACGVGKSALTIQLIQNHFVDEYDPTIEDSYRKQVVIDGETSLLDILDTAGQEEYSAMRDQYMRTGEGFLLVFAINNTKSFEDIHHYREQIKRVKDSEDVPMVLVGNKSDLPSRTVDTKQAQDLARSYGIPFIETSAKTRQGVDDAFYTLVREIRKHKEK
Chain of GTP-KRASG12C::SOS1 (P01116 1-169 isoform P01116-2 G12C/C51S/C80L/C118S): as above
Chain of GTP-KRASG12C::PI3Kα (P01116 1-169 isoform P01116-2 G12C/C51S/C80L/C118S): as above

`Cn1cnc(Cn2ccc3ccc(CNCc4[nH]c5ccccc5c4[C@H]4NC(=O)c5ccc(O)cc54)cc32)c1` [Compound 1]: the “inhibition of GDP-dependent interaction with G12D instead of G12C” value at GDP-KRASG12D::SOS1 is reported as “maintained the inhibitory function”. The concentration for half-maximal inhibition (IC50) is 260 nM against GDP-KRASG12D::SOS1, 180 nM on GTP-KRASG12C::CRAF, 100 nM on GTP-KRASG12C::PI3Kα and 360 nM on GTP-KRASG12C::SOS1.
Turning to `C=CC(=O)N1CCN(c2ncnc3c(F)c(-c4c(O)cccc4F)c(Cl)cc23)CC1` [ARS-1620, reference compound], at GDP-KRASG12D::SOS1, the “inhibition of GDP-dependent interaction with G12D instead of G12C” value is reported as “lost the ability to inhibit”. Also, the IC50 against GDP-KRASG12D::SOS1, on GTP-KRASG12C::CRAF, on GTP-KRASG12C::PI3Kα and at GTP-KRASG12C::SOS1 was greater than 10000 nM each time.

For orientation: IC50 means the concentration needed to halve the response being measured.
